Experimental data as given in the NIST ThermoML archive (doi:10.1016/j.jct.2018.02.018).

Key:
[1] = refractive index (Na D-line) (dimensionless); conditions: 100 kPa, Liquid, Standard Abbe refractometry
[2] = 100 kPa, Liquid; for speed of sound: Frequency=3 MHz, Single path-length method; for mass density: Vibrating tube method
[3] = xn = mol fraction of the nth substance listed; conditions: 100 kPa, Liquid, x1 = 1; for speed of sound: Frequency=3 MHz, Single path-length method; for mass density: Vibrating tube method
[4] = refractive index (Na D-line) (dimensionless); xn = mol fraction of the nth substance listed; conditions: 100 kPa, Liquid, Standard Abbe refractometry, x1 = 1

CN(C)CCOCCO [2-(2-dimethylaminoethoxy)ethanol]
Conditions	mass density, [2] [kg/m3]	refractive index, [1]	speed of sound, [2] [m/s]
293.15 K	954	1.442	1403.6
298.15 K	950	1.44	1386.7
303.15 K	946	1.438	1369.9
313.15 K	938	1.435	1336.8
323.15 K	930	1.431	1303.9

NCCO [2-aminoethan-1-ol]
Conditions	mass density, [2] [kg/m3]	refractive index, [1]	speed of sound, [2] [m/s]
293.15 K	1016	1.455	1734.2
298.15 K	1012	1.453	1718.3
303.15 K	1008	1.451	1702.2
313.15 K	1000	1.447	1669.4
323.15 K	992	1.443	1637.3

CN(C)CCCO [3-dimethylamino-1-propanol]
Conditions	mass density, [2] [kg/m3]	refractive index, [1]	speed of sound, [2] [m/s]
293.15 K	885	1.437	1395.8
298.15 K	881	1.435	1377.3
303.15 K	877	1.433	1358.8
313.15 K	869	1.429	1322.1
323.15 K	860	1.425	1285.7

NCc1ccccc1 [benzylamine]
Conditions	mass density, [2] [kg/m3]	refractive index, [1]	speed of sound, [2] [m/s]
293.15 K	983	1.544	1579.7
298.15 K	978	1.542	1560.1
303.15 K	974	1.539	1540.2
313.15 K	965	1.534	1500
323.15 K	957	1.529	1461.1

C[S+](C)[O-] [dimethyl sulfoxide]
Conditions	mass density, [2] [kg/m3]	refractive index, [1]	speed of sound, [2] [m/s]
293.15 K	1100	1.479	1503.9
298.15 K	1095	1.477	1486.8
303.15 K	1090	1.475	1469.9
313.15 K	1080	1.47	1436.3
323.15 K	1070	1.466	1403

C[S+](C)[O-] [dimethyl sulfoxide] + CN(C)CCCO
Conditions	mass density, [3] [kg/m3]	refractive index, [4]	speed of sound, [3] [m/s]
293.15 K	1100	1.479	1503.9
303.15 K	1090	1.475	1469.9
313.15 K	1080	1.47	1436.3
323.15 K	1070	1.466	1403

C[S+](C)[O-] [dimethyl sulfoxide] + CN(C)CCOCCO
Conditions	mass density, [3] [kg/m3]	refractive index, [4]	speed of sound, [3] [m/s]
293.15 K	1100	1.479	1503.9
303.15 K	1090	1.475	1469.9
313.15 K	1080	1.47	1436.3
323.15 K	1070	1.466	1403

C[S+](C)[O-] [dimethyl sulfoxide] + NCCO
Conditions	mass density, [3] [kg/m3]	refractive index, [4]	speed of sound, [3] [m/s]
293.15 K	1100	1.479	1503.9
303.15 K	1090	1.475	1469.9
313.15 K	1080	1.47	1436.3
323.15 K	1070	1.466	1403

C[S+](C)[O-] [dimethyl sulfoxide] + NCc1ccccc1
Conditions	mass density, [3] [kg/m3]	refractive index, [4]	speed of sound, [3] [m/s]
293.15 K	1100	1.479	1503.9
303.15 K	1090	1.475	1469.9
313.15 K	1080	1.47	1436.3
323.15 K	1070	1.466	1403
